Experimental data reported in PubChem BioAssay AID2060618 (Molecular Pharmacology Branch, DTP, NCI, 2025).

System: 454973-116-R2-J3-PDC spheroids, percent test/control viability
Test: Anticancer human tumor 454973-116-R2-J3-PDC patient-derived pancreatic carcinoma cell line growth inhibition [CLK]
Conditions: spheroids with HUVEC and MSC; for IC50: curve of first compound; for viability, T/C: stronger effect = lower value; active means viability on the fitted dose curve at most 10% of control; inactive means the rest
Procedure, shortened: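 Patient-derived tumor cells grown as complex spheroids with HUVEC endothelial cells and mesenchymal stem cells, treated with drug combinations. Concentrations descend in half-log steps from near clinical Cmax, or from 10 microM if Cmax unknown.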

[1] = second compound 0.0316 µM, first compound 0.0316 µM
[2] = second compound 0.0316 µM, first compound 0.1 µM
[3] = second compound 0.0316 µM, first compound 0.316 µM
[4] = second compound 0.0316 µM, first compound 1 µM
[5] = second compound 0.0316 µM, first compound 3.16 µM
[6] = second compound 0.0316 µM, first compound 10 µM
[7] = second compound 0.1 µM, first compound 0.0316 µM
[8] = second compound 0.1 µM, first compound 0.1 µM
[9] = second compound 0.1 µM, first compound 0.316 µM
[10] = second compound 0.1 µM, first compound 1 µM
[11] = second compound 0.1 µM, first compound 3.16 µM
[12] = second compound 0.1 µM, first compound 10 µM
[13] = second compound 0.316 µM, first compound 0.0316 µM
[14] = second compound 0.316 µM, first compound 0.1 µM
[15] = second compound 0.316 µM, first compound 0.316 µM
[16] = second compound 0.316 µM, first compound 1 µM
[17] = second compound 0.316 µM, first compound 3.16 µM
[18] = second compound 0.316 µM, first compound 10 µM
[19] = second compound 1 µM, first compound 0.0316 µM
[20] = second compound 1 µM, first compound 0.1 µM
[21] = second compound 1 µM, first compound 0.316 µM
[22] = second compound 1 µM, first compound 1 µM
[23] = second compound 1 µM, first compound 3.16 µM
[24] = second compound 1 µM, first compound 10 µM
[25] = second compound 3.16 µM, first compound 0.0316 µM
[26] = second compound 3.16 µM, first compound 0.1 µM
[27] = second compound 3.16 µM, first compound 0.316 µM
[28] = second compound 3.16 µM, first compound 1 µM
[29] = second compound 3.16 µM, first compound 3.16 µM
[30] = second compound 3.16 µM, first compound 10 µM
[31] = second compound 10 µM, first compound 0.0316 µM
[32] = second compound 10 µM, first compound 0.1 µM
[33] = second compound 10 µM, first compound 0.316 µM
[34] = second compound 10 µM, first compound 1 µM
[35] = second compound 10 µM, first compound 3.16 µM
[36] = second compound 10 µM, first compound 10 µM
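Further: spheroids exposed to compounds for 7 days before readout.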

CC1(C)CCC(CN2CCN(c3ccc(C(=O)NS(=O)(=O)c4ccc(NCC5CCOCC5)c([N+](=O)[O-])c4)c(Oc4cnc5[nH]ccc5c4)c3)CC2)=C(c2ccc(Cl)cc2)C1 + CNC(=O)c1ccc(Nc2nc(OC3CCCC3)c3c(-c4ccc5nc(C)oc5c4)c[nH]c3n2)c(OC)c1
inactive: viability, T/C [1] 95.9% | viability, T/C [2] 94.7% | viability, T/C [3] 103% | viability, T/C [4] 102% | viability, T/C [5] 112% | viability, T/C [6] 24.5% | viability, T/C [7] 96.3% | viability, T/C [8] 98.8% | viability, T/C [9] 93.9% | viability, T/C [10] 94% | viability, T/C [11] 102% | viability, T/C [12] 28.1% | viability, T/C [13] 37.5% | viability, T/C [14] 38.5% | viability, T/C [15] 37.6% | viability, T/C [16] 40.3% | viability, T/C [17] 32.5% | viability, T/C [18] 21.1% | viability, T/C [19] 27.2% | viability, T/C [20] 26.2% | viability, T/C [21] 28.3% | viability, T/C [22] 28.4% | viability, T/C [23] 28.3% | viability, T/C [24] 23.4% | viability, T/C [25] 29.2% | viability, T/C [26] 25.2% | viability, T/C [27] 26.9% | viability, T/C [28] 23.9% | viability, T/C [29] 27.6% | viability, T/C [30] 22.3% | viability, T/C [31] 26.6% | viability, T/C [32] 26.6% | viability, T/C [33] 24.4% | viability, T/C [34] 21.8% | viability, T/C [35] 26.1% | viability, T/C [36] 21.6%
6.95 µM: IC50 (second compound 0.1 µM)
< 0.0316 µM: IC50 (second compound 0.316 µM) | IC50 (second compound 1 µM) | IC50 (second compound 3.16 µM) | IC50 (second compound 10 µM)
6.83 µM: IC50 (second compound 0.0316 µM)

NC(=O)C(=Cn1cnc(-c2cc(C(F)(F)F)cc(C(F)(F)F)c2)n1)c1cncnc1 + CNC(=O)c1ccc(Nc2nc(OC3CCCC3)c3c(-c4ccc5nc(C)oc5c4)c[nH]c3n2)c(OC)c1
0.411 µM: IC50 (second compound 0.1 µM)
< 0.00949 µM: IC50 (second compound 1 µM) | IC50 (second compound 3.16 µM) | IC50 (second compound 10 µM)
0.0619 µM: IC50 (second compound 0.316 µM)
0.33 µM: IC50 (second compound 0.0316 µM)
inactive: viability, T/C (second compound 0.0316 µM, first compound 0.00949 µM) 115% | viability, T/C (second compound 0.0316 µM, first compound 0.03 µM) 92.4% | viability, T/C (second compound 0.0316 µM, first compound 0.0949 µM) 66.3% | viability, T/C (second compound 0.0316 µM, first compound 0.3 µM) 55% | viability, T/C (second compound 0.0316 µM, first compound 0.949 µM) 35.7% | viability, T/C (second compound 0.0316 µM, first compound 3 µM) 8.15% | viability, T/C (second compound 0.1 µM, first compound 0.00949 µM) 105% | viability, T/C (second compound 0.1 µM, first compound 0.03 µM) 96.4% | viability, T/C (second compound 0.1 µM, first compound 0.0949 µM) 71% | viability, T/C (second compound 0.1 µM, first compound 0.3 µM) 55.3% | viability, T/C (second compound 0.1 µM, first compound 0.949 µM) 37.2% | viability, T/C (second compound 0.1 µM, first compound 3 µM) 11.1% | viability, T/C (second compound 0.316 µM, first compound 0.00949 µM) 54.1% | viability, T/C (second compound 0.316 µM, first compound 0.03 µM) 55.3% | viability, T/C (second compound 0.316 µM, first compound 0.0949 µM) 47.9% | viability, T/C (second compound 0.316 µM, first compound 0.3 µM) 38.1% | viability, T/C (second compound 0.316 µM, first compound 0.949 µM) 28.3% | viability, T/C (second compound 1 µM, first compound 0.00949 µM) 35.7% | viability, T/C (second compound 1 µM, first compound 0.03 µM) 31.3% | viability, T/C (second compound 1 µM, first compound 0.0949 µM) 28.1% | viability, T/C (second compound 1 µM, first compound 0.3 µM) 18.8% | viability, T/C (second compound 1 µM, first compound 0.949 µM) 12.8% | viability, T/C (second compound 3.16 µM, first compound 0.00949 µM) 31.4% | viability, T/C (second compound 3.16 µM, first compound 0.03 µM) 30.6% | viability, T/C (second compound 3.16 µM, first compound 0.0949 µM) 26.1% | viability, T/C (second compound 3.16 µM, first compound 0.3 µM) 19.3% | viability, T/C (second compound 10 µM, first compound 0.00949 µM) 32.6% | viability, T/C (second compound 10 µM, first compound 0.03 µM) 25.8% | viability, T/C (second compound 10 µM, first compound 0.0949 µM) 22.5% | viability, T/C (second compound 10 µM, first compound 0.3 µM) 19.9%
active: viability, T/C (second compound 0.316 µM, first compound 3 µM) 4.69% | viability, T/C (second compound 1 µM, first compound 3 µM) 1% | viability, T/C (second compound 3.16 µM, first compound 0.949 µM) 5.51% | viability, T/C (second compound 3.16 µM, first compound 3 µM) 0.93% | viability, T/C (second compound 10 µM, first compound 0.949 µM) 4.71% | viability, T/C (second compound 10 µM, first compound 3 µM) 0.78%

Nc1ccccc1NC(=O)c1ccc(CNC(=O)OCc2cccnc2)cc1 + CNC(=O)c1ccc(Nc2nc(OC3CCCC3)c3c(-c4ccc5nc(C)oc5c4)c[nH]c3n2)c(OC)c1
1.62 µM: IC50 (second compound 0.0316 µM)
active: viability, T/C [6] 5.57% | viability, T/C [12] 6.74% | viability, T/C [18] 5.37% | viability, T/C [30] 2.74% | viability, T/C [36] 2.21%
inactive: viability, T/C [1] 97.2% | viability, T/C [2] 102% | viability, T/C [3] 87.2% | viability, T/C [4] 69.4% | viability, T/C [5] 25.1% | viability, T/C [7] 107% | viability, T/C [8] 95.9% | viability, T/C [9] 91.8% | viability, T/C [10] 69% | viability, T/C [11] 26.8% | viability, T/C [13] 46.9% | viability, T/C [14] 40.4% | viability, T/C [15] 42.2% | viability, T/C [16] 31.3% | viability, T/C [17] 19% | viability, T/C [19] 29.1% | viability, T/C [20] 27.1% | viability, T/C [21] 23.6% | viability, T/C [22] 28.6% | viability, T/C [23] 16.8% | viability, T/C [24] 3.41% | viability, T/C [25] 28.7% | viability, T/C [26] 30.1% | viability, T/C [27] 24.4% | viability, T/C [28] 27.1% | viability, T/C [29] 17.2% | viability, T/C [31] 26.9% | viability, T/C [32] 24.5% | viability, T/C [33] 21.1% | viability, T/C [34] 21.8% | viability, T/C [35] 16.8%
< 0.0316 µM: IC50 (second compound 0.316 µM) | IC50 (second compound 1 µM) | IC50 (second compound 3.16 µM) | IC50 (second compound 10 µM)
1.66 µM: IC50 (second compound 0.1 µM)
